Columns and labels:
[1] = tested on: passive cutaneous anaphylactic reaction in rats produced by injection of serum containing reaginic antibodies to egg albumin; assay: Inhibition of passive cutaneous anaphylactic (PCA) reaction in rats induced by reaginic antibodies; format: in vivo, rat; conditions: intravenously immediately before antigen
Method: Diethylcarbamazin, i.e., 1-diethylcarbamoyl-4-methylpiperazine was used as a comparison compound. Specifically, tests were run as follows:
Serum containing reaginic (IgE-like) antibody to egg albumin was prepared by injecting rats intramuscularly with 0.1 ml of a solution of the antigen (10 mg/ml) in saline together with 0.5 ml of Bordetella pertussis vaccine (Behring; 2 × 10^10 organisms/ml). 9-14 Days later the animals were bled from the abdominal aorta; the serum was pooled and stored at -20° C until required. The titer of the serum, i.e., the highest dilution inducing passive cutaneous anaphylaxis (PCA) in the rat following a 48-hour latent period, was between 1:8 and 1:32. For use in these experiments the serum was diluted 1:24.
The animals were anesthetized with 2,2-dichloro-1,1-difluoroethyl-methyl ether, sold under the trademark Penthrane, and were sensitized by injecting 0.1 ml of the antiserum into the shaved abdominal flanks. After 48 hours for reaginic PCA, the animals were given an intravenous injection of 1 ml of saline solution containing 0.5% by weight of egg albumin and 0.25% by weight of Evans Blue.
After having killed and exsanguinated the animals, the size in square millimeters and the intensity, in arbitary scores, of the resulting blue spot were determined. The product of these two parameters was used to determine the degree of the reaction and the degree of reaction with no active material was taken as the standard against which to measure % inhibition of the anaphylactic reaction.
6 Animals were used per dose level and for control.
The test material was injected intravenously immediately before the antigen, using a solution in water containing 0.5% HCl and 2% of dimethylformamide. For comparative purposes there was also tested diethylcarbamoyl-4-methylpiperazine sold under the tradename Diethylcarbamazin. The volumes of the injections were varied to give the indicated dosage of active material. The results obtained were as follows:
(Ovalbumin 2 × cryst. and Bord. pertussis 2 × 10^10) Active material applied intravenously immediately before antigen

blood pressure = assay: Blood pressure reduction in awake rats with arterial high pressure (sodium chloride / 11-deoxycorticosteroneacetate); format: in vivo, rat; conditions: 4 hours after application, median
Method: In order to establish the effectiveness of the novel products of the invention as agents for reducing blood pressure, a series of tests as follows were carried out.
The following were the test methods used:
The test animals were rats into which arterial catheters had been implanted in a sterile operation via the arteria femoralis into the aorta. It was possible to measure the animals' blood pressure in the awake state directly in the blood with a transducer (Statham Transducer Type TP 23 D 6) via a carrier frequency measuring bridge. The animals were treated by administration of 10% common salt (sodium chloride) in their feed and, starting on the sixth week of their life, two injections per week of 5 mg at a time of 11-deoxycorticosteroneacetate per animal and thus developed an arterial high pressure in the median with values of […]. The test compounds were administered to the animals as follows: After the blood pressure control values had been determined, the animals received the test compound perorally suspended in 10 ml of 1% methyl cellulose solution in the indicated dosage and measurements were taken 4 hours after oral application of the substance.
The values set forth in the Table represent in each case the median of at least 7 individual measurements of blood pressure depression (in mm Hg) per applied substance.

Row | Compound | Maximum Blood Pressure Reduction (blood pressure; 25 mg/kg perorally) | further results
1 | CCN(CC)C(=O)N1CCN(C)CC1 [Diethylcarbamazin, 1-diethylcarbamoyl-4-methylpiperazine, reference compound] |  | % Inhibition PCA ([1]; 60.0 mg/kg): 58%
2 | Nc1ncnc2c1ncn2CCCN1CCC(COc2ccccc2)CC1 [Example 1, 9-[3-(4-Phenoxymethylpiperidino)-propyl]-adenine] | -76 ± 5 mm Hg | % Inhibition PCA ([1]; 0.38 mg/kg): 27%; % Inhibition PCA ([1]; 0.75 mg/kg): 45%
3 | Nc1ncnc2c1ncn2CCCN1CCC(COc2ccccc2Br)CC1 [Example 1a, 9-{3-[4-(2-bromophenoxymethyl)-piperidino]-propyl}-adenine] | -47 ± 7 mm Hg | 
4 | Nc1ncnc2c1ncn2CCCN1CCC(COc2ccccc2Cl)CC1 [Example 1b, 9-{3-[4-(2-chlorophenoxymethyl)-piperidino]-propy}-adenine] | -64 ± 5 mm Hg | % Inhibition PCA ([1]; 0.38 mg/kg): 32%
5 | Nc1ncnc2c1ncn2CCCN1CCC(COc2ccc(Cl)cc2)CC1 [Example 1d, 9-{3-[4-(4-chlorophenoxymethyl)-piperidino]-propyl}-adenine] |  | Maximum Blood Pressure Reduction (blood pressure; 50 mg/kg perorally): -25 ± 7 mm Hg
6 | Nc1ncnc2c1ncn2CCCN1CCC(COc2ccc(F)cc2)CC1 [Example 1e, 9-{3-[4-(4-fluorophenoxymethyl)-piperidino]-propyl}-adenine] | -60 ± 7 mm Hg | % Inhibition PCA ([1]; 0.38 mg/kg): 54%
7 | COc1cccc(OCC2CCN(CCCn3cnc4c(N)ncnc43)CC2)c1 [Example 1g, 9-{3-[4-(3-methoxy-phenoxymethyl)-piperidino]-propyl}-adenine] | -18 ± 4 mm Hg | 
8 | COc1ccc(OCC2CCN(CCCn3cnc4c(N)ncnc43)CC2)cc1 [Example 1h, 9-{3-[4-(4-methoxy-phenoxymethyl)-piperidino]-propyl}-adenine] | -19 ± 3 mm Hg | 
9 | Cc1ccccc1OCC1CCN(CCCn2cnc3c(N)ncnc32)CC1 [Example 1i, 9-{3-[4-(2-methyl-phenoxymethyl)-piperidino]-propyl}-adenine] | -55 ± 7 mm Hg | 
10 | CNc1ncnc2c1ncn2CCCN1CCC(COc2ccccc2)CC1 [Example 1j, N^6-methyl-9-[3-(4-phenoxymethyl-piperidino)-propyl]-adenine] |  | % Inhibition PCA ([1]; 0.38 mg/kg): 21%; % Inhibition PCA ([1]; 0.75 mg/kg): 60%
11 | CNc1ncnc2c1ncn2CCCN1CCC(COc2ccc(F)cc2)CC1 [Example 1k, N^6-methyl-9-{3-[4-(4-fluorophenoxy-methyl)-piperidino]-propyl}-adenine] | -49 ± 8 mm Hg | % Inhibition PCA ([1]; 0.38 mg/kg): 21%
12 | CCNc1ncnc2c1ncn2CCCN1CCC(COc2ccc(F)cc2)CC1 [Example 1m, N^6-ethyl-9-{3-[4-(4-fluorophenoxy-methyl)-piperidino]-propyl}-adenine] | -20 ± 6 mm Hg | 
13 | OCCNc1ncnc2c1ncn2CCCN1CCC(COc2ccccc2)CC1 [Example 1n, N^6-(2-hydroxyethyl)-9-[3-(4-phenoxy-methyl-piperidino)-propyl]-adenine] | -48 ± 5 mm Hg | 
14 | CCCNc1ncnc2c1ncn2CCCN1CCC(COc2ccccc2)CC1 [Example 1o, N^6-n-propyl-9-[3-(4-phenoxymethyl-piperidino)-propyl]-adenine] | -67 ± 7 mm Hg | 
15 | CCCNc1ncnc2c1ncn2CCCN1CCC(COc2ccc(F)cc2)CC1 [Example 1p, N^6-n-propyl-9-{3-[4-(4-fluorophenoxy-methyl)-piperidino]-propyl}-adenine] | -57 ± 8 mm Hg | 
16 | CN(C)c1ncnc2c1ncn2CCCN1CCC(COc2ccccc2)CC1 [Example 1q, 6-dimethylamino-9-[3-(4-phenoxymethyl-piperidino)-propyl]-purine] | -41 ± 7 mm Hg | 
17 | CCCCNc1ncnc2c1ncn2CCCN1CCC(COc2ccc(F)cc2)CC1 [Example 2, N^6-n-Butyl-9-{3-[4-(4-fluorophenoxymethyl)-piperidino]propyl}-adenine] | -53 ± 6 mm Hg | 
18 | CC(C)Nc1ncnc2c1ncn2CCCN1CCC(COc2ccccc2)CC1 [Example 2a, N^6-isopropyl-9-[3-(4-phenoxymethyl-piperidino)-propyl]-adenine] | -35 ± 9 mm Hg | 
19 | CCCCNc1ncnc2c1ncn2CCCN1CCC(COc2ccccc2)CC1 [Example 2b, N^6-n-butyl-9-[3-(4-phenoxymethyl-piperidino)-propyl]-adenine] |  | Maximum Blood Pressure Reduction (blood pressure; 50 mg/kg perorally): -35 ± 11 mm Hg
20 | CC(N)(Cc1ccc(O)c(O)c1)C(=O)O (stereo not drawn) [α-Methyl-Dopa, reference compound] |  | Maximum Blood Pressure Reduction (blood pressure; 150 mg/kg perorally): -33 ± 5 mm Hg
